According to patent US11713307B2, “Heteroaryl-biphenyl amides for the treatment of PD-L1 diseases” (CHEMOCENTRYX, INC., priority 2019, dated 2023):

target: human PD-L1 (Homo sapiens (Human), UniProt Q9NZQ7); test: Enzyme-Linked Immunosorbent Assay—ELISA (PD-1/PD-L1 binding); details: plates coated with human PD-L1; Human PD-1 and biotin added; absorbance at 450 nm
Experimental: 96 Well plates were coated with 1 μg/mL of human PD-L1 (obtained from R&D) in PBS overnight at 4° C. The wells were then blocked with 2% BSA in PBS (W/V) with 0.05% TWEEN-20 for 1 hour at 37° C. The plates were washed 3 times with PBS/0.05% TWEEN-20 and the compounds were serial diluted (1:5) in dilution medium and added to the ELISA plates. Human PD-1 and biotin 0.3 μg/mL (ACRO Biosystems) were added and incubated for 1 hour at 37° C. then washed 3 times with PBS/0.05% TWEEN-20. A second block was performed with 2% BSA in PBS (W/V)/0.05% TWEEN-20 for 10 min at 37° C. and the plates were washed 3 times with PBS/0.05% TWEEN-20. Streptavidin-HRP was added for 1 hour at 37° C. then the plates were washed 3 times with PBS/0.05% TWEEN-20. TMB substrate was added and reacted for 20 min at 37° C. A stop solution (2 N aqueous H2SO4) was added. The absorbance was read at 450 nm using a micro-plate spectrophotometer. The results are shown in Table 1: IC50 values are provided as follows: from 1000 to 10,000 nM (+); from 10 up to 1000 nM (++); less than 10 nM (+++).

human PD-L1, sequence (Q9NZQ7 19-239): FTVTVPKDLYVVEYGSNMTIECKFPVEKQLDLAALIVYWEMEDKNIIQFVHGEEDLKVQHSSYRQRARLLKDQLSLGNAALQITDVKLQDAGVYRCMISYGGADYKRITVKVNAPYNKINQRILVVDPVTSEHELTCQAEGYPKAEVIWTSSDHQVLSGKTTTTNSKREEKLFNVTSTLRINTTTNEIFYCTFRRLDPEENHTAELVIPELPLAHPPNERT

Compound | IC50 [µM]
COc1nc(-c2cccc(-c3cccc(NC(=O)c4cn(C)c(=O)n(C)c4=O)c3Cl)c2Cl)cnc1CN[C@H]1CCOC[C@H]1O [Compound 1.004] | < 0.01
COc1nc(-c2cccc(-c3cccc(NC(=O)c4cn(C)c(=O)n(C)c4=O)c3C)c2Cl)ccc1CNCC(C)(C)C(N)=O [Compound 1.040] | < 0.01
COc1nc(-c2cccc(-c3cccc(NC(=O)c4cn(C)c(=O)n(C)c4=O)c3C)c2Cl)ccc1CN1CC(C(C)(C)O)C1 [Compound 1.041] | < 0.01
COc1cc(-c2cccc(-c3cccc(NC(=O)c4cn(C)c(=O)n(C)c4=O)c3Cl)c2Cl)ncc1CN1CC(C(=O)O)C1 [Compound 1.086] | < 0.01
COc1nc(-c2cccc(-c3cccc(NC(=O)c4cn(C)c(=O)n(C)c4=O)c3Cl)c2Cl)ccc1CN[C@@](C)(CO)C(=O)O [Compound 1.070] | < 0.01
COc1nc(-c2cccc(-c3cccc(NC(=O)c4cn(C)c(=O)n(C)c4=O)c3C)c2Cl)ccc1CNC[C@@H](O)CO [Compound 1.044] | < 0.01
COc1nc(-c2cccc(-c3cccc(NC(=O)c4cn(C)c(=O)n(C)c4=O)c3C)c2Cl)ccc1CN1CC[C@@](C)(O)C1 [Compound 1.048] | < 0.01
COc1nc(-c2cccc(-c3cccc(NC(=O)c4cn(C)c(=O)n(C)c4=O)c3C)c2Cl)cnc1CN[C@@H]1CCOC[C@@H]1O [Compound 1.078] | < 0.01
COc1nc(-c2cccc(-c3cccc(NC(=O)c4cn(C)c(=O)n(C)c4=O)c3C)c2Cl)ccc1CN[C@@H]1CCOC[C@@H]1O [Compound 1.008] | < 0.01
Cc1c(NC(=O)c2cn(C)c(=O)n(C)c2=O)cccc1-c1cccc(-c2ccc(CNC[C@@H]3CCC(=O)N3)c(C(F)(F)F)n2)c1Cl [Compound 1.045] | < 0.01
COc1nc(-c2cccc(-c3cccc(NC(=O)c4cn(C)c(=O)n(C)c4=O)c3Cl)c2Cl)ccc1CNC[C@H]1CCC(=O)N1 [Compound 1.066] | < 0.01
COc1cc(-c2cccc(-c3cccc(NC(=O)c4cn(C)c(=O)n(C)c4=O)c3Cl)c2Cl)ncc1CNC[C@@H]1CCC(=O)N1 [Compound 1.093] | < 0.01
COc1nc(-c2cccc(-c3cccc(NC(=O)c4cn(C)c(=O)n(C)c4=O)c3C)c2Cl)ccc1CN1CCC(O)CC1 [Compound 1.046] | < 0.01
CCc1nc(-c2cccc(-c3cccc(NC(=O)c4cn(C)c(=O)n(C)c4=O)c3Cl)c2Cl)ccc1CN1CC(C(=O)O)C1 [Compound 1.071] | < 0.01
COc1nc(-c2cccc(-c3cccc(NC(=O)c4c[nH]c(=O)n(C)c4=O)c3C)c2Cl)ccc1CNC[C@@H]1CCC(=O)N1 [Compound 1.065] | < 0.01
COc1nc(-c2cccc(-c3cccc(NC(=O)c4cn(C)c(=O)n(C)c4=O)c3C)c2Cl)ccc1CNC[C@@H]1CC(C)(C)C(=O)N1 [Compound 1.016] | < 0.01
COc1nc(-c2cccc(-c3cccc(NC(=O)c4cn(C)c(=O)n(C)c4=O)c3C)c2C)ccc1CNC[C@@H]1CCC(=O)N1 [Compound 1.062] | < 0.01

Compound | IC50 [µM]
COc1nc(-c2cccc(-c3cccc(NC(=O)c4cn(C)c(=O)n(C)c4=O)c3Cl)c2Cl)cnc1CN1CC(C(=O)O)C1 [Compound 1.100] | < 0.01
COc1nc(-c2cccc(-c3cccc(NC(=O)c4cn(C)c(=O)n(C)c4=O)c3Cl)c2Cl)ccc1CNCC(C)(C)C(N)=O [Compound 1.057] | < 0.01
COc1nc(-c2cccc(-c3cccc(NC(=O)c4nn(C)c(=O)n(C)c4=O)c3Cl)c2Cl)ccc1CNC[C@@H]1CCC(=O)N1 [Compound 1.064] | < 0.01
COc1nc(-c2cccc(-c3cccc(NC(=O)c4cn(C)c(=O)n(C)c4=O)c3Cl)c2Cl)cnc1CN1CCCC[C@H]1C(=O)O [Compound 1.091] | < 0.01
COc1nc(-c2cccc(-c3cccc(NC(=O)c4cn(C)c(=O)n(C)c4=O)c3C)c2Cl)ccc1CNCC(C)(C)CO [Compound 1.049] | < 0.01
COc1nc(-c2cccc(-c3cccc(NC(=O)c4cn(C)c(=O)n(C)c4=O)c3Cl)c2Cl)cnc1CN[C@@H]1CNC(=O)C1 [Compound 1.002] | < 0.01
COc1nc(-c2cccc(-c3cccc(NC(=O)c4cn(C)c(=O)n(C)c4=O)c3C)c2Cl)ccc1CNC[C@H](C)O [Compound 1.029] | < 0.01
COc1nc(-c2cccc(-c3cccc(NC(=O)c4cn(C)c(=O)n(C)c4=O)c3Cl)c2Cl)cnc1CN[C@@H]1CCC(=O)NC1 [Compound 1.001] | < 0.01
COc1nc(-c2cccc(-c3cccc(NC(=O)c4cn(C)c(=O)n(C)c4=O)c3C)c2Cl)ccc1CN[C@@H]1CCOC[C@H]1O [Compound 1.014] | < 0.01
COc1nc(-c2cccc(-c3cccc(NC(=O)c4cn(C)c(=O)n(C)c4=O)c3Cl)c2Cl)ncc1CN[C@@H]1CCOC[C@@H]1O [Compound 1.089] | < 0.01
COc1nc(-c2cccc(-c3cccc(NC(=O)c4cn(C)c(=O)n(C)c4=O)c3C)c2Cl)ccc1CN[C@H](C)CO [Compound 1.020] | < 0.01
COc1nc(-c2cccc(-c3cccc(NC(=O)c4cn(C)c(=O)n(C)c4=O)c3C)c2Cl)ccc1CN[C@@H]1COC[C@@H]1O [Compound 1.012] | < 0.01
COc1nc(-c2cccc(-c3cccc(NC(=O)c4cn(C)c(=O)n(C)c4=O)c3C)c2Cl)ccc1CN1CC2(CCNC2=O)C1 [Compound 1.092] | < 0.01
COc1nc(-c2cccc(-c3cccc(NC(=O)c4cn(C)c(=O)n(C)c4=O)c3C)c2C#N)ccc1CN[C@@H]1CCOC[C@@H]1O [Compound 1.026] | < 0.01
COc1nc(-c2cccc(-c3cccc(NC(=O)c4cn(C)c(=O)n(C)c4=O)c3C)c2Cl)ccc1CNCC1(C)CCC(=O)N1 (stereo not drawn) [Compound 1.015] | < 0.01
COc1nc(-c2cccc(-c3cccc(NC(=O)c4cn(C)c(=O)n(C)c4=O)c3C)c2Cl)ccc1CNCC(C)(C)O [Compound 1.055] | < 0.01

Further lines, results first:

IC50 [µM] | Compound
1 to 10 | COc1nc(-c2cccc(-c3cccc(NC(=O)c4cn(C)c(=O)n(C)c4=O)c3C)c2Cl)ccc1CNCC1(O)CC1 [Compound 1.022]
< 0.01 | CCc1nc(-c2cccc(-c3cccc(NC(=O)c4cn(C)c(=O)n(C)c4=O)c3Cl)c2Cl)ccc1CNC[C@@H]1CCC(=O)N1 [Compound 1.076]
< 0.01 | COc1nc(-c2cccc(-c3cccc(NC(=O)c4cn(C)c(=O)n(C)c4=O)c3Cl)c2Cl)ccc1CN1CC(C(=O)O)C1 [Compound 1.084]
< 0.01 | COc1nc(-c2cccc(-c3cccc(NC(=O)c4cn(C)c(=O)n(C)c4=O)c3C)c2Cl)ccc1CNC[C@@H](C)O [Compound 1.028]
< 0.01 | COc1nc(-c2cccc(-c3cccc(NC(=O)c4cn(C)c(=O)n(C)c4=O)c3C)c2Cl)ccc1CN[C@@H](C)CO [Compound 1.021]
< 0.01 | COc1nc(-c2cccc(-c3cccc(NC(=O)c4cn(C)c(=O)n(C)c4=O)c3Cl)c2Cl)ccc1CNC[C@@H](C)O [Compound 1.032]
< 0.01 | COc1nc(-c2cccc(-c3cccc(NC(=O)c4cn(C)c(=O)n(C)c4=O)c3C)c2Cl)ccc1CNC(C)(C)CCO [Compound 1.050]
< 0.01 | COc1nc(-c2cccc(-c3cccc(NC(=O)c4cn(C)c(=O)n(C)c4=O)c3Cl)c2Cl)cnc1CN1CCCC[C@@H]1C(=O)O [Compound 1.094]
< 0.01 | COc1nc(-c2cccc(-c3cccc(NC(=O)c4cn(C)c(=O)n(C)c4=O)c3C)c2Cl)ccc1CNC[C@@H]1CCC(=O)N1 [Compound 1.006]
< 0.01 | COc1nc(-c2cccc(-c3cccc(NC(=O)c4cccn(C)c4=O)c3Cl)c2Cl)ccc1CNC[C@@H]1CCC(=O)N1 [Compound 1.069]
< 0.01 | COc1nc(-c2cccc(-c3cccc(NC(=O)c4cn(C)c(=O)n(C)c4=O)c3Cl)c2Cl)ccc1CNC[C@H](C)O [Compound 1.034]
< 0.01 | COc1cc(-c2cccc(-c3cccc(NC(=O)c4cn(C)c(=O)n(C)c4=O)c3Cl)c2Cl)ncc1CN[C@@H]1CCOC[C@@H]1O [Compound 1.097]
< 0.01 | COc1nc(-c2cccc(-c3cccc(NC(=O)c4cn(C)c(=O)n(C)c4=O)c3Cl)c2F)ccc1CN[C@@H]1CCOC[C@@H]1O [Compound 1.018]
< 0.01 | COc1cc(-c2cccc(-c3cccc(NC(=O)c4cn(C)c(=O)n(C)c4=O)c3C)c2C)cnc1CNCCO [Compound 1.010]
< 0.01 | COc1nc(-c2cccc(-c3cccc(NC(=O)c4cn(C)c(=O)n(C)c4=O)c3Cl)c2Cl)ccc1CN1CC[C@@](C)(O)C1 [Compound 1.027]
< 0.01 | COc1nc(-c2cccc(-c3cccc(NC(=O)c4cn(C)c(=O)n(C)c4=O)c3C)c2Cl)ccc1CN1CC(O)C1 [Compound 1.095]
< 0.01 | COc1nc(-c2cccc(-c3cccc(NC(=O)c4cn(C)c(=O)n(C)c4=O)c3)c2Cl)ccc1CNC[C@@H]1CCC(=O)N1 [Compound 1.061]
< 0.01 | COc1nc(-c2cccc(-c3cccc(NC(=O)c4cn(C)c(=O)n(C)c4=O)c3Cl)c2C)ccc1CNC[C@@H]1CCC(=O)N1 [Compound 1.068]
< 0.01 | COc1nc(-c2cccc(-c3cccc(NC(=O)c4cncn(C)c4=O)c3Cl)c2Cl)ccc1CNC[C@@H]1CCC(=O)N1 [Compound 1.060]
< 0.01 | COc1nc(-c2cccc(-c3cccc(NC(=O)c4cn(C)c(=O)n(C)c4=O)c3Cl)c2Cl)cnc1CN[C@@H]1CCOC[C@@H]1O [Compound 1.005]
0.01 to 1 | COc1nc(-c2cccc(-c3cccc(NC(=O)c4cn(C)c(=O)n(C)c4=O)c3Cl)c2Cl)ccc1CN(C)C[C@@H]1CCC(=O)N1 [Compound 1.058]
